In patent US8987314B2, “Amide, urea or sulfone amide linked benzothiazole inhibitors of endothelial lipase” (Bristol-Myers Squibb Company, priority 2012, dated 2015) one finds IC50 data, which are given here for 20 molecules.

Where two headings read alike, the source gives them in different places.

One test has as its target Endothelial lipase (EL) (Homo sapiens (Human), UniProt Q9Y5X9). Put plainly: EL assay: endothelial lipase activity with fluorescent substrate A10070 in DMPG vesicles. It is filed as biochemical. In short, it runs like this:
(§1)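 EL from conditioned medium of HT-1080 cells engineered to overexpress endogenous EL; HL partially purified from conditioned medium of HL-overexpressing COS cells. Enzyme preincubated with compound 30 min at 37° C in 50 mM HEPES pH 8.0, 50 mM NaCl, 1 mM CaCl2; DMPG vesicles carrying FRET substrate (0.11 mole fraction) then added.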

The next test concerns the target hepatic lipase (HL) (Homo sapiens (Human), UniProt P11150). The test is described as follows: HL assay: hepatic lipase activity with fluorescent substrate A10070 in DMPG vesicles. It is filed as biochemical. In a few lines: as §1
Where [1] appears, read: EL from conditioned media of HT-1080 cells, 30 min incubation with compound at 37° C., A10070/DMPG vesicles.
The mark [2] stands for this setting: HL partially purified from conditioned media of COS cells, 30 min incubation with compound at 37° C., A10070/DMPG vesicles.

Endothelial lipase (EL), sequence (Q9Y5X9 21-500): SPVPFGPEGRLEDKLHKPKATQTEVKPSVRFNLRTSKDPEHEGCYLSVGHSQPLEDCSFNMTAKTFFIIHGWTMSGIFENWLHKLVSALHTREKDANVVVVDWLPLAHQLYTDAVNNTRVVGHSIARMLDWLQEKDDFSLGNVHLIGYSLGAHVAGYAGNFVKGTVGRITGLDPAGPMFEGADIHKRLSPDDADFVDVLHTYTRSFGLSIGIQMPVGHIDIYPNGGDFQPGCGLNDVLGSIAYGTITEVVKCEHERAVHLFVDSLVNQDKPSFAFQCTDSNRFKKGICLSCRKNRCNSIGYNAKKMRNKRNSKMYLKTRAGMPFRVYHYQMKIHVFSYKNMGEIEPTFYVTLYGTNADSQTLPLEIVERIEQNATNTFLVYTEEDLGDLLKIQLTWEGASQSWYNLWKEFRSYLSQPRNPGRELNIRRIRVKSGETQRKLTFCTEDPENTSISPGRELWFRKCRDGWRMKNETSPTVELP
hepatic lipase (HL), sequence (P11150 23-499, species assumed): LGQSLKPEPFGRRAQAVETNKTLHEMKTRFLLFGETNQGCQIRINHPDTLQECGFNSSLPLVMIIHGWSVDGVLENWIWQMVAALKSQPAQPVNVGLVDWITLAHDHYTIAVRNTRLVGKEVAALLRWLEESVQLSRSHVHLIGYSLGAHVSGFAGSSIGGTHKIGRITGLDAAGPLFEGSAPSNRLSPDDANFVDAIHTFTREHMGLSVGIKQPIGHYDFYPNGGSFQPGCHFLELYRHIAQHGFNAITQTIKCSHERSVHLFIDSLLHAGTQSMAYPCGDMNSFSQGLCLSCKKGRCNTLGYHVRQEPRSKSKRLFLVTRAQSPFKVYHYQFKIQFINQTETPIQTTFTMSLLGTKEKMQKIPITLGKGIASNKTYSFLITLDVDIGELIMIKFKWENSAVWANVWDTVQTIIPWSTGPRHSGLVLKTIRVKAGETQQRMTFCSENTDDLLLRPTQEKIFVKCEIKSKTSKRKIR

Usually IC50 stands for the concentration needed to halve the response being measured. With `COCCNC(=O)c1cccc(-c2ccc3nc(C(C(=O)NCCS(N)(=O)=O)S(=O)(=O)CCC(F)(F)F)sc3c2)c1` (stereo not shown) [Example B202, N-(2-methoxyethyl)-3-(2-(2-oxo-2-((2-sulfamoylethyl)amino)-1-((3,3,3-trifluoropropyl)sulfonyl)ethyl)benzo[d]thiazol-6-yl)benzamide], the IC50 was found to be 24 nM at Endothelial lipase (EL) (setting [1]) and 170 nM at hepatic lipase (HL) (setting [2]).

Take `Cc1cc2nc(C(C(=O)NCCS(N)(=O)=O)S(C)(=O)=O)sc2cc1-c1cnn(C)c1` (stereo not shown) [Example B203, 2-(5-methyl-6-(1-methyl-1H-pyrazol-4-yl)-1,3-benzothiazol-2-yl)-2-(methylsulfonyl)-N-(2-sulfamoylethyl)acetamide]: the IC50 on Endothelial lipase (EL) (setting [1]) worked out at 10 nM; on hepatic lipase (HL) (setting [2]) it was 141 nM.

Regarding `COCCS(=O)(=O)C(C(=O)NCc1nnc(C)o1)c1nc2ccc(-c3ccccc3)cc2s1` (stereo not shown) [Example B204, 2-(2-methoxyethane-sulfonyl)-N-[(5-methyl-1,3,4-oxadiazol-2-yl)methyl]-2-(6-phenyl-1,3-benzothiazol-2-yl)a-cetamide], the IC50 on Endothelial lipase (EL) is 23.7 nM; at hepatic lipase (HL), 17.5 nM.

Consider `COC(=O)CCS(=O)(=O)C(C(=O)NCc1nnc(C)o1)c1nc2ccc(-c3ccccc3)cc2s1` (stereo not shown) [Example B205, methyl 3-({[(5-methyl-1,3,4-oxadiazol-2-yl)meth-yl]carbamoyl}(6-phenyl-1,3-benzothiazol-2-yl)methanesulfonyl)pro-panoate], for which the results for the IC50 against Endothelial lipase (EL) and at hepatic lipase (HL) were 205 nM and 101 nM, respectively.

`CS(=O)(=O)C(C(=O)NCCS(N)(=O)=O)c1nc2ccc(-c3ccc(Cl)cc3)cc2s1` (stereo not shown) [Example B207, 2-[6-(4-chlorophenyl)-1,3-benzothiazol-2-yl]-2-methanesulfonyl-N-(2-sulfamoylethyl)acetamide]: the IC50 against Endothelial lipase (EL) was 1.4 nM; against hepatic lipase (HL) it was 2.8 nM.

Turning to `CS(=O)(=O)C(C(=O)NCCS(N)(=O)=O)c1nc2ccc(-c3cccc(Cl)c3)cc2s1` (stereo not shown) [Example B208, 2-[6-(3-chlorophenyl)-1,3-benzothiazol-2-yl]-2-methanesulfonyl-N-(2-sulfamoylethyl)acetamide], the IC50 against Endothelial lipase (EL) and against hepatic lipase (HL) was 0.8 nM each time.

Regarding `CS(=O)(=O)C(C(=O)NCCS(N)(=O)=O)c1nc2ccc(-c3cc(F)cc(Cl)c3)cc2s1` (stereo not shown) [Example B209, 2-[6-(3-chloro-5-fluorophenyl)-1,3-benzothiazol-2-yl]-2-methanesulfonyl-N-(2-sulfamoylethyl)acetamide], the IC50 against Endothelial lipase (EL) was 8 nM; against hepatic lipase (HL) it was 13.9 nM.

Regarding `CS(=O)(=O)C(C(=O)NCCS(N)(=O)=O)c1nc2ccc(-c3ccc(C(N)=O)cc3)cc2s1` (stereo not shown) [Example B214, 4-(2-{methanesulfonyl[(2-sul-famoylethyl)carbamoyl]meth-yl}-1,3-benzothiazol-6-yl)benzamide], the IC50 against Endothelial lipase (EL) turned out to be 1.6 nM; at hepatic lipase (HL), 160 nM.

`COCc1cccc(-c2ccc3nc(C(C(=O)NCCS(N)(=O)=O)S(C)(=O)=O)sc3c2)c1` (stereo not shown) [Example B215, 2-methanesulfonyl-2-{6-[3-(methoxymethyl)phen-yl]-1,3-benzothiazol-2-yl}-N-(2-sulfamoylethyl)a-cetamide]: the IC50 against Endothelial lipase (EL) was determined as 4.4 nM; against hepatic lipase (HL), 3.6 nM.

For the molecule `CS(=O)(=O)C(C(=O)NCCS(N)(=O)=O)c1nc2ccc(-c3ccc(C(=O)NC4CC4)cc3)cc2s1` (stereo not shown) [Example B216, N-cyclopropyl-4-(2-{methanesulfonyl[(2-sulfa-moylethyl)carbamoyl]meth-yl}-1,3-benzothiazol-6-yl)benzamide], the concentration for half-maximal inhibition (IC50) at Endothelial lipase (EL) worked out at 2.1 nM; on hepatic lipase (HL) it was 155 nM.

For `CC(C)Oc1ccc(-c2ccc3nc(C(C(=O)NCCS(N)(=O)=O)S(C)(=O)=O)sc3c2)cc1Cl` (stereo not shown) [Example B217, 2-{6-[3-chloro-4-(propan-2-yloxy)phenyl]-1,3-benzothiazol-2-yl}-2-methanesulfonyl-N-(2-sulfamoylethyl)acetamide], the figures for the IC50 on Endothelial lipase (EL) and at hepatic lipase (HL) were 2.3 nM and 3.6 nM, respectively.

In the case of `CC(C)(C)OC(=O)n1ccc(-c2ccc3nc(C(C(=O)NCCS(N)(=O)=O)S(C)(=O)=O)sc3c2)c1` (stereo not shown) [Example B220, tert-butyl 3-(2-{methanesulfonyl[(2-sulfa-moylethyl)carbamoyl]meth-yl}-1,3-benzothiazol-6-yl)-1H-pyrrole-1-carboxylatc], the figures for the IC50 against Endothelial lipase (EL) and against hepatic lipase (HL) were 51.4 nM and 2.8 nM, respectively.

`CS(=O)(=O)C(C(=O)NCCS(N)(=O)=O)c1nc2ccc(-c3cnn(CCC(F)(F)F)c3)cc2s1` (stereo not shown) [Example B221, 2-methanesulfonyl-N-(2-sulfamoylethyl)-2-{6-[1-(3,3,3-trifluoropropyl)-1H-pyrazol-4-yl]-1,3-benzothiazol-2-yl}acetamide]: the IC50 was 78.1 nM against Endothelial lipase (EL) and 308 nM against hepatic lipase (HL).

For the molecule `CS(=O)(=O)C(C(=O)NCCS(N)(=O)=O)c1nc2ccc(-c3cncs3)cc2s1` (stereo not shown) [Example B222, 2-methanesulfonyl-N-(2-sulfamoylethyl)-2-[6-(1,3-thiazol-5-yl)-1,3-benzothiazol-2-yl]a-cetamide], the IC50 against Endothelial lipase (EL) was 12.3 nM; against hepatic lipase (HL) it was 31.6 nM.

Take `CS(=O)(=O)C(C(=O)NCCS(N)(=O)=O)c1nc2ccc(-c3ccc(-c4nnc(N)s4)cc3)cc2s1` (stereo not shown) [Example B223, 2-{6-[4-(5-amino-1,3,4-thiadiazol-2-yl)phenyl]-1,3-benzothiazol-2-yl}-2-methanesulfonyl-N-(2-sulfamoylethyl)acetamide]: the IC50 at Endothelial lipase (EL) came out at 1.2 nM; against hepatic lipase (HL) it was 7.7 nM.

On to `CS(=O)(=O)C(C(=O)NCCS(N)(=O)=O)c1nc2ccc(-c3ccc(-c4ncco4)cc3)cc2s1` (stereo not shown) [Example B224, 2-methanesulfonyl-2-{6-[4-(1,3-oxazol-2-yl)phen-yl]-1,3-benzothiazol-2-yl}-N-(2-sulfamoylethyl)a-cetamide], for which the IC50 is 8.4 nM on Endothelial lipase (EL) and 10 nM at hepatic lipase (HL).

For the molecule `Cc1nnc(-c2ccc(-c3ccc4nc(C(C(=O)NCCS(N)(=O)=O)S(C)(=O)=O)sc4c3)cc2)o1` (stereo not shown) [Example B225, 2-methanesulfonyl-2-{6-[4-(5-methyl-1,3,4-oxadiazol-2-yl)phenyl]-1,3-benzothiazol-2-yl}-N-(2-sulfamoylethyl)a-cetamide], the IC50 on Endothelial lipase (EL) amounted to 4.9 nM; against hepatic lipase (HL), 15.4 nM.

With `NS(=O)(=O)CCNC(=O)C(c1nc2ccc(-c3ccc(C(=O)NC4CC4)cc3)cc2s1)S(=O)(=O)Cc1ccc(OC(F)(F)F)cc1` (stereo not shown) [Example B226, N-cyclopropyl-4-(2-{[(2-sulfamoylethyl)carbamoyl][4-(trifluoromethoxy)phen-yl]methanesulfonyl-methyl}-1,3-benzothiazol-6-yl)benzamide], the IC50 on Endothelial lipase (EL) worked out at 0.5 nM; on hepatic lipase (HL), 74 nM.

For the molecule `NC(=O)c1ccc(-c2ccc3nc(C(C(=O)NCCS(N)(=O)=O)S(=O)(=O)Cc4ccc(OC(F)(F)F)cc4)sc3c2)cc1` (stereo not shown) [Example B227, 4-(2-{[(2-sulfamoylethyl)car-bamoyl][4-(trifluoromethoxy)phen-yl]methanesulfonyl-methyl}-1,3-benzothiazol-6-yl)benzamide], the IC50 against Endothelial lipase (EL) was 0.5 nM; against hepatic lipase (HL), 80.8 nM.

With `NC(=O)c1ccc(-c2ccc3nc(C(C(=O)NCCS(N)(=O)=O)S(=O)(=O)CCC(F)(F)F)sc3c2)cc1` (stereo not shown) [Example B228, 4-(2-{[(2-sulfamoylethyl)car-bamoyl](3,3,3-trifluoro-propanesulfonyl)methyl}-1,3-benzothiazol-6-yl)ben-zamide], the IC50 on Endothelial lipase (EL) was found to be 9.2 nM; against hepatic lipase (HL), 250 nM.
